Results: US20120004314A1, “ANTIMICROBIAL COMPOSITION” (AMBRIA DERMATOLOGY AB, priority 2008, published 2012)
Marks after values point to notes of the source that are not given here.

How the values were obtained:
Format in all cases: cell-based
S. aureus = experiment: MIC on DST-agar plates against S. aureus; set-up: key: +++: Same growth as on the control plate without any chlorhexidine and/or pentane-1,5-diol; ++: Reduced growth compared to the control; +: Very poor growth; −: No growth
Description: The minimal inhibitory concentration (MIC) of pentane-1,5-diol and chlorhexidine against S. aureus was determined using bacteria concentrations of 6×10^6 (20 μl applicated onto DST-agar plates). The results are depicted below in table 1 and 2.
The minimal inhibitory concentration (MIC) of pentane-1,5-diol combined with chlorhexidine against S. aureus was determined using bacteria concentrations of 6×10^6 (20 μl applicated onto DST-agar plates).

P. acnes = experiment: MIC on blood agar plates against P. acnes; set-up: key: +++: Same growth as on the control plate without any chlorhexidine and/or pentane-1,5-diol; ++: Reduced growth compared to the control; +: Very poor growth; −: No growth
Description: The minimal inhibitory concentration (MIC) of pentane-1,5-diol and chlorhexidine against P. acnes was determined using bacteria concentrations of 6×10^6 (20 μl applicated onto blood agar plates). The results are depicted below in table 4 and 5.
The minimal inhibitory concentration (MIC) of pentane-1,5-diol combined with chlorhexidine against P. acnes was determined using bacteria concentrations of 6×10^6 (20 μl applicated onto blood agar plates).

S. pyogenes A CCUG 4208 = experiment: MIC on blood agar plates against S. pyogenes A CCUG 4208; set-up: key: +++: Same growth as on the control plate without any chlorhexidine and/or pentane-1,5-diol; ++: Reduced growth compared to the control; +: Very poor growth; −: No growth
Description: The minimal inhibitory concentration (MIC) of pentane-1,5-diol combined with chlorhexidine against S. pyogenes A CCUG 4208 was determined using bacteria concentrations of 6×10^7 (20 μl applicated onto blood agar plates). The results are depicted below in table 7 and 8.

C. albicans (CCUG 5594) = experiment: MIC by agar dilution assay, C. albicans
Description: (§1) Chlorhexidine digluconate (CHG) solution, 20% water, […]-25ML, (Sigma, St. Louis, USA) and PD, (BASF AG, Ludwigshafen, Germany) were used in the study and the following reference strains were tested; C. albicans (CCUG 5594), S. aureus (CCUG 17621) and P. acnes (CCUG 1794). Minimum inhibitory concentration of CHG and pentane-1,5-diol (PD) were determined by agar dilution assay. A series of dilutions of each compound were prepared in blood agar medium for P. acnes, and in Diagnostic Sensitivity Test (DST) agar (Oxoid, Basingstoke, UK) for C. albicans and S. aureus. Dilution series with each agent were made with freshly prepared agar at 48-50° C. Final concentration ranges were as follows: CHG solution, 0.00001 to 1% (w/v) and PD, 1-30% (v/v). The prepared plates were solidified and used immediately. For each organism an inoculum was prepared by growing organisms on blood agar. Colonies were suspended in phosphate-buffered saline (PBS) and suspensions were adjusted to approximately 6×10^6 CFU/ml for C. albicans and P. acnes and 6×10^5 CFU/mL for S. aureus. The plates were inoculated with 20 μl spots and incubated for one day for C. albicans and S. aureus and three days for P. acnes. MICs were then determined as the lowest concentration of the compound inhibiting growth of the isolates. First the MICs of CHG and PD, respectively, were determined for each micro-organism. Then, a range of combined CHG and PD concentrations were tested on each micro-organism to determine if there was synergistic activity. The definition of synergistic effect is: “An effect that is greater than the sum of the effects of the two drugs, such as the equation: 1+1 . . . ”. Each isolate was tested twice.

S. aureus (CCUG 17621) = experiment: MIC by agar dilution assay, S. aureus
Description: as §1

P. acnes (CCUG 1794) = experiment: MIC by agar dilution assay, P. acnes
Description: as §1

[1] = C. albicans CCUG5594, agar dilution
[2] = S. aureus CCUG17621, agar dilution
[3] = P. acnes CCUG1794, agar dilution
[4] = growth grade at pentane-1,5-diol 5 wt %
[5] = growth grade at pentane-1,5-diol 6 wt %
[6] = growth grade at pentane-1,5-diol 7 wt %
[7] = growth grade at pentane-1,5-diol 10 wt %
[8] = growth grade at pentane-1,5-diol 20 wt %
[9] = growth grade at pentane-1,5-diol 30 wt %

[H]/N=C(\N/C(=N/[H])NCCCCCCNC(=N)NC(=N)Nc1ccc(Cl)cc1)Nc1ccc(Cl)cc1 [Chlorhexidine, chlorhexidine digluconate]
0.00001 w/v %: MIC combined CHG (S. aureus (CCUG 17621); S. aureus CCUG17621, CHG in combination with PD 8 v/v %)
+: growth grade (S. pyogenes A CCUG 4208; growth grade at chlorhexidine digluconate 0.0001 %)
−: bacterial growth grade (S. aureus; S. aureus, growth grade at chlorhexidine 0.0001 wt %) | bacterial growth grade (S. aureus; S. aureus, growth grade at chlorhexidine 0.0005 wt %) | bacterial growth grade (S. aureus; S. aureus, growth grade at chlorhexidine 0.001 wt %) | bacterial growth grade (S. aureus; S. aureus, growth grade at chlorhexidine 0.005 wt %) | bacterial growth grade (S. aureus; S. aureus, growth grade at chlorhexidine 0.01 wt %) | bacterial growth grade (S. aureus; S. aureus, growth grade at chlorhexidine 0.02 wt %) | bacterial growth grade (S. aureus; S. aureus, growth grade at chlorhexidine 0.05 wt %) | bacterial growth grade (S. aureus; S. aureus, growth grade at chlorhexidine 0.1 wt %) | bacterial growth grade (S. aureus; S. aureus, growth grade at chlorhexidine 0.5 wt %) | bacterial growth grade (S. aureus; S. aureus, growth grade at chlorhexidine 1 wt %) | growth grade (P. acnes; growth grade at chlorhexidine 0.0001 wt %) | growth grade (P. acnes; growth grade at chlorhexidine 0.0005 wt %) | growth grade (P. acnes; growth grade at chlorhexidine 0.001 wt %) | growth grade (P. acnes; growth grade at chlorhexidine 0.005 wt %) | growth grade (P. acnes; growth grade at chlorhexidine 0.01 wt %) | growth grade (P. acnes; growth grade at chlorhexidine 0.02 wt %) | growth grade (P. acnes; growth grade at chlorhexidine 0.05 wt %) | growth grade (P. acnes; growth grade at chlorhexidine 0.1 wt %) | growth grade (P. acnes; growth grade at chlorhexidine 0.5 wt %) | growth grade (P. acnes; growth grade at chlorhexidine 1 wt %) | growth grade (S. pyogenes A CCUG 4208; growth grade at chlorhexidine digluconate 0.0005 %) | growth grade (S. pyogenes A CCUG 4208; growth grade at chlorhexidine digluconate 0.001 %) | growth grade (S. pyogenes A CCUG 4208; growth grade at chlorhexidine digluconate 0.005 %) | growth grade (S. pyogenes A CCUG 4208; growth grade at chlorhexidine digluconate 0.01 %) | growth grade (S. pyogenes A CCUG 4208; growth grade at chlorhexidine digluconate 0.05 %) | growth grade (S. pyogenes A CCUG 4208; growth grade at chlorhexidine digluconate 0.1 %) | growth grade (S. pyogenes A CCUG 4208; growth grade at chlorhexidine digluconate 0.5 %)
0.0005 w/v %: MIC alone CHG (C. albicans (CCUG 5594); [1])
2: Ratio (alone/combined) CHG/CHG + PD (P. acnes (CCUG 1794); P. acnes CCUG1794, reduction of the MIC of CHG)
1×10^−4: factor by which MIC of CHG was lower than PD (C. albicans (CCUG 5594); C. albicans)
++: bacterial growth grade (S. aureus; S. aureus, growth grade at chlorhexidine 0.00005 wt %) | growth grade (P. acnes; growth grade at chlorhexidine 0.00005 wt %)
10: Ratio (alone/combined) CHG/CHG + PD (C. albicans (CCUG 5594); C. albicans CCUG5594, reduction of the MIC of CHG) | Ratio (alone/combined) CHG/CHG + PD (S. aureus (CCUG 17621); S. aureus CCUG17621, reduction of the MIC of CHG)
0.0001 w/v %: MIC alone CHG (S. aureus (CCUG 17621); [2]) | MIC alone CHG (P. acnes (CCUG 1794); [3])
0.00005 w/v %: MIC combined CHG (C. albicans (CCUG 5594); C. albicans CCUG5594, CHG in combination with PD 3 v/v %) | MIC combined CHG (P. acnes (CCUG 1794); P. acnes CCUG1794, CHG in combination with PD 3 v/v %)
9×10^−5: factor by which MIC of CHG was lower than PD (P. acnes (CCUG 1794); P. acnes)
+++: bacterial growth grade (S. aureus; S. aureus, growth grade at chlorhexidine 0.00001 wt %) | growth grade (P. acnes; growth grade at chlorhexidine 0.00001 wt %) | growth grade (S. pyogenes A CCUG 4208; growth grade at chlorhexidine digluconate 0.00001 %) | growth grade (S. pyogenes A CCUG 4208; growth grade at chlorhexidine digluconate 0.00005 %)
6×10^−5: factor by which MIC of CHG was lower than PD (S. aureus (CCUG 17621); S. aureus)

OCCCCCO [Pentane-1,5-diol, pentane-1,5-diol]
+++: growth grade (P. acnes; growth grade at pentane-1,5-diol 1 wt %) | growth grade (S. pyogenes A CCUG 4208; growth grade at 1,5-pentanediol 2 %)
5 v/v %: MIC alone PD (C. albicans (CCUG 5594); [1])
−: bacterial growth grade (S. aureus; growth grade at pentane-1,5-diol 9 wt %) | bacterial growth grade (S. aureus; [7]) | bacterial growth grade (S. aureus; [8]) | bacterial growth grade (S. aureus; [9]) | growth grade (P. acnes; [5]) | growth grade (P. acnes; [6]) | growth grade (P. acnes; [7]) | growth grade (P. acnes; [8]) | growth grade (P. acnes; [9]) | growth grade (S. pyogenes A CCUG 4208; growth grade at 1,5-pentanediol 7 %) | growth grade (S. pyogenes A CCUG 4208; growth grade at 1,5-pentanediol 8 %) | growth grade (S. pyogenes A CCUG 4208; growth grade at 1,5-pentanediol 9 %) | growth grade (S. pyogenes A CCUG 4208; growth grade at 1,5-pentanediol 10 %) | growth grade (S. pyogenes A CCUG 4208; growth grade at 1,5-pentanediol 15 %)
6 v/v %: MIC alone PD (P. acnes (CCUG 1794); [3])
++: bacterial growth grade (S. aureus; [5]) | bacterial growth grade (S. aureus; [6]) | growth grade (P. acnes; growth grade at pentane-1,5-diol 3 wt %) | growth grade (S. pyogenes A CCUG 4208; growth grade at 1,5-pentanediol 4 %)
2: Ratio (alone/combined) PD/PD + CHG (C. albicans (CCUG 5594); C. albicans CCUG5594, reduction of the MIC of PD) | Ratio (alone/combined) PD/PD + CHG (P. acnes (CCUG 1794); P. acnes CCUG1794, reduction of the MIC of PD)
3 v/v %: MIC combined PD (C. albicans (CCUG 5594); C. albicans CCUG5594, PD in combination with CHG 0.00005 w/v %) | MIC combined PD (P. acnes (CCUG 1794); P. acnes CCUG1794, PD in combination with CHG 0.00005 w/v %)
9 v/v %: MIC alone PD (S. aureus (CCUG 17621); [2])
+++^a: bacterial growth grade (S. aureus; [4])
+: bacterial growth grade (S. aureus; growth grade at pentane-1,5-diol 8 wt %) | growth grade (P. acnes; [4]) | growth grade (S. pyogenes A CCUG 4208; growth grade at 1,5-pentanediol 6 %)
1: Ratio (alone/combined) PD/PD + CHG (S. aureus (CCUG 17621); S. aureus CCUG17621, reduction of the MIC of PD)
8 v/v %: MIC combined PD (S. aureus (CCUG 17621); S. aureus CCUG17621, PD in combination with CHG 0.00001 w/v %)
